“And” between values parts separate entries of the source, which are not always exact repeats. Identical values can stand only once. “Also recorded” adds a separate entry of the source.
How the values were obtained:
[1] = molecular target: T1, GABAA receptors (human α1 GABRA1 and rat β2 GABRB2 subunits) (UniProt P14867+P63138); experiment: Two-electrode voltage clamp of GABAA receptors expressed in Xenopus oocytes; format: cell-based; details: for effect on GABAA receptor currents: dose-response, oocytes
T1 construct: expressed in transfected cells; host or cells: Xenopus laevis oocytes (intranuclear DNA injection)
Excerpt: Ovaries removed from sexually mature Xenopus laevis frogs were bluntly dissected to remove surrounding connective tissue and then digested with 0.2% type I collagenase in an oocyte Ringer's solution. Once free from thecal cells and connective tissue, individual oocytes were rinsed, sorted, and stored in a modified Barth's solution (R. Brosnan et al., […]. 103, (2006): 86; L. Yang, P. S. Milutinovic, […]. Sonner, […]. 105, (2007): 393; […]. Fukushima, & […]. 44, (2017): 577; […], Pharmacology 103, (2019): 10). Heteromeric GABAA receptors were expressed in oocytes by blind intranuclear injection of 1 ng DNA encoding the human al (GABRA1) and rat B2 (GABRB2) subunits in a 1:1 ratio. NMDA receptors were expressed by intracytoplasmic injection of 5 ng RNA encoding rat NR1 (GRIN1) and rat NR2a (GRIN2A) subunits in a 1:1 ratio. Nax 1.2 channels were expressed by injection of 5 ng RNA encoding the human SCN2A gene. Two-electrode voltage clamp studies of GABAA receptors were carried out in a 0.25-mL linear perfusion chamber. Perfusates were delivered by using a syringe pump at 1.5 mL/min using gastight glass syringes and polytetrafluoroethylene tubing. […] King Precision Glass, Claremont, CA, USA) connected to separate […] (Axon Instruments HS2A; Molecular Devices, San Jose, CA, USA) through which voltage was clamped at -80 mV and current was passed via a computer-controlled amplifier (Axon Instruments GeneClamp 500B; Molecular Devices). Oocytes were perfused with frog Ringer's (FR) solution containing 115 mM NaCl, 2.5 mM KCl, 1.8 mM CaCl2), and 10 mM HEPES prepared from ACS-grade chemicals and 18.2 MΩ H2O, filtered and pH adjusted to 7.4. […] After 30 s, the perfusate was switched back to FR solution. This process was repeated until a stable baseline response was achieved. Next, FR containing either L-carvone (99%; Sigma-Aldrich, St. Louis, MO, USA) or methyl salicylate (>99%; Sigma-Aldrich) at the test concentration was used to perfuse the oocyte for 1.5 min, and then the oocyte was perfused with FR+GABA solution containing this same drug and concentration for 30 s. […] Uninjected oocytes served as negative controls. Only one drug and concentration were studied per oocyte. […] Percent change in current was calculated as follows: [formula] • where IB is the baseline pre-drug current peak and ID is the drug current peak. For each drug and ion channel, data were fit to a Hill equation using nonlinear regression with sequential quadratic programming and bootstrap estimates of parameter standard errors (SPSS, v. 27; IBM, Armonk, NY, USA). In the model, maximum drug inhibition (Imax) was constrained to not be less than -100%. Initial parameter estimates were seeded with values based on visual inspection of respective dose-response curves in order to facilitate model convergence.

Sprague Dawley rats = experiment: Pilot study, single IV bolus injection, righting reflex and tail clamp response; details: for time to return of righting reflex: methyl salicylate: the 2 surviving rats
Procedure: Solutions of 10% (v/v) L-carvone or methyl salicylate were prepared sterilely in 20% […]® (Fresenius Kabi, Lake Zurich, IL, USA). Lateral tail vein catheters were placed in twenty-one 69-day-old, male, Sprague Dawley rats weighing 291±17 (mean±SD) grams. Each rat received a single intravenous bolus injection of L-carvone solution (0.2 or 0.4 mL), methyl salicylate solution (0.1, 0.15, 0.2, or 0.4 mL), or a 1:1 mixture of the L-carvone and methyl salicylate solutions over 15 s. Because L-carvone density is 0.9673 g/cm^3 at 25° C., 0.2 mL and 0.4 mL of solution contained 19 mg and 39 mg of L-carvone, respectively (E. E. Royals & S. E. Horne, J. Am. Chem. Soc. 73, (1951): 5850).
Spontaneous motor activity and loss-of-righting reflex was assessed at 5- to 10-s intervals, and nociception response to an alligator clamp applied to the tail was tested if the righting reflex was absent. […] Animals were weighed 24 and 48 h after the study and then euthanized for gross pathology examination.

[2] = at the mean plasma concentration during IV infusion anesthesia in rats
[3] = 0.2 mL IV bolus of 10% emulsion

T1 sequence (P14867 28-456): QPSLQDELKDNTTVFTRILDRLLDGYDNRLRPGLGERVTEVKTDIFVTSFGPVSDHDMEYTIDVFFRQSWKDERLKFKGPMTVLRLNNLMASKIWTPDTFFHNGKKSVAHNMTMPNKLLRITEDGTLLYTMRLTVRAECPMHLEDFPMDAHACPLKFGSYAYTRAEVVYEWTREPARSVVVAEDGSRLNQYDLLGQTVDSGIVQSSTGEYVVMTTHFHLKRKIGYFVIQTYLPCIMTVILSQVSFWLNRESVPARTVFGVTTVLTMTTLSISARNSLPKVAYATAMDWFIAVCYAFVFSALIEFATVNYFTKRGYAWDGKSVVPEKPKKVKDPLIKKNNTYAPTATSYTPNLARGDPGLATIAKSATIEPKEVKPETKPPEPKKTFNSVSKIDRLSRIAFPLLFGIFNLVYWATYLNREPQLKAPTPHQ
T1 sequence (P63138 25-474 limits assumed): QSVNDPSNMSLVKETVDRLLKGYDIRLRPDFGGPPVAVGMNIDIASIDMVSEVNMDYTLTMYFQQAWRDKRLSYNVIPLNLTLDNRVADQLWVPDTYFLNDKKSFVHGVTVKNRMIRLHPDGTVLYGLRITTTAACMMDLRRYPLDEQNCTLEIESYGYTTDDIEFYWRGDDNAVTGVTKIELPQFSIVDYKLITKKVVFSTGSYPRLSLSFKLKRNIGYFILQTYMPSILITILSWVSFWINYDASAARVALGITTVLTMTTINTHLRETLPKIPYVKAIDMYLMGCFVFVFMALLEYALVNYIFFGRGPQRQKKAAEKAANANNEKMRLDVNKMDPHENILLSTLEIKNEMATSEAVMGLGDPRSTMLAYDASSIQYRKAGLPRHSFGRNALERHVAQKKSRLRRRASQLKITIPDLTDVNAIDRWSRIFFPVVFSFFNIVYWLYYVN

Q: How did the “potentiation of GABAA receptors” value [1, 2] turn out when COC(=O)c1ccccc1O [methyl salicylate] was run?
A: 30%

Q: What about the “effect on GABAA receptor currents” value [1] of the same compound?
A: potently inhibited; also recorded: biphasic effect

Q: What about the IC50 ([1]; high-affinity inhibitory site, 50 μM GABA, oocytes clamped at −80 mV, read-out: IC50, inhibition of GABAA receptor currents) of the same compound?
A: 110 nM and ~100 nM

Q: What about the “Hill coefficient, GABAA receptor potentiation site” value ([1]; low-affinity binding) of the same compound?
A: less than 1

Q: And the “concentration for second positive allosteric GABAA site relative to high-affinity site” value ([1]; potentiation site vs inhibitory site)?
A: about 50,000 times

Q: And the EC50 ([1]; second site, high concentrations, read-out: median effective concentration, potentiation of GABAA currents)?
A: 5.3 mM

Q: What about the “time to loss-of-righting reflex” value (Sprague Dawley rats; 0.1 mL IV bolus of 10% emulsion in 20% INTRALIPID, single rat) of the same compound?
A: 33 s

Q: What about the “general anesthesia (immobility in response to a tail clamp)” value (Sprague Dawley rats; 0.1 mL IV bolus, single rat) of the same compound?
A: never resulted in general anesthesia

Q: And the “time to return-of-righting reflex” value (Sprague Dawley rats; 0.1 mL IV bolus, single rat)?
A: 60 s

Q: What about the time to anesthesia (Sprague Dawley rats; 0.15 mL IV bolus, N=4 rats) of the same compound?
A: 39 ± 2 s

Q: What about the time to loss-of-righting (Sprague Dawley rats; 0.15 mL IV bolus, N=4 rats) of the same compound?
A: 35 ± 5 s

Q: And the “time to normal ambulation without ataxia” value (Sprague Dawley rats; 0.15 mL IV bolus, N=4 rats)?
A: 76 ± 10 s

Q: And the “time to return from anesthesia (tail clamp response) after drug injection” value (Sprague Dawley rats; 0.15 mL IV bolus, N=4 rats)?
A: 64 ± 8 s

Q: What about the “time to return of righting after drug injection” value (Sprague Dawley rats; 0.15 mL IV bolus, N=4 rats) of the same compound?
A: 53 ± 3 s

Q: And the “time to walking and active / ambulating normally” value (Sprague Dawley rats; 0.2 mL IV bolus)?
A: 110 s

Q: And the “time to loss of tail clamp response (general anesthesia)” value (Sprague Dawley rats; [3])?
A: 37 ± 13 s

Q: And the “time to loss-of-righting reflex” value (Sprague Dawley rats; [3])?
A: 35 ± 10 s

Q: What about the “time to return of righting reflex” value (Sprague Dawley rats; 0.2 mL IV bolus) of the same compound?
A: 58 s

Q: What about the “time to regain tail clamp response” value (Sprague Dawley rats; 0.2 mL IV bolus, the 2 surviving rats) of the same compound?
A: 48 s

Q: And the time to unconsciousness (Sprague Dawley rats; 0.4 mL IV bolus)?
A: 20 ± 5 s

Q: And the “body weight for the next two days, relative to baseline values” (Sprague Dawley rats; rat, in vivo)?
A: 97-98%

Q: And the “gross pathology / necropsy findings” value (Sprague Dawley rats; rat, in vivo)?
A: no gross abnormalities

Q: What does the source list for L-carvone?
A: GABAA receptor current at highest concentration ([1]; 10 mM drug): near or complete loss of channel currents; also recorded: almost entirely inhibited; inhibition of GABAA receptors [1, 2]: 96%; Hill coefficient, GABAA receptor inhibition ([1]; dose-response model): ~1; effect on GABAA receptor currents [1]: dose-dependent inhibition; body weight over the next 2 days, deviation from baseline (Sprague Dawley rats; 0.2 mL IV bolus): 1.9±1.4%; time to walking and active / ambulating normally (Sprague Dawley rats; 0.2 mL IV bolus): 60 ± 13 s; time to loss of tail clamp response (general anesthesia) (Sprague Dawley rats; [3]): 54 ± 11 s; time to loss-of-righting reflex (Sprague Dawley rats; [3]): 40 ± 6 s; behavioural sign before loss-of-righting reflex (Sprague Dawley rats; 0.2 mL IV bolus, N=4 rats): transient excitement; duration of transiently decreased respiratory rate (Sprague Dawley rats; 0.2 mL IV bolus, N=4 rats): approximately 10 s; duration of whole-body muscle hypertonia (Sprague Dawley rats; 0.2 mL IV bolus, half of the rats): 15 s; time to return of righting reflex (Sprague Dawley rats; 0.2 mL IV bolus): 58 ± 14 s; time to cardiopulmonary arrest (Sprague Dawley rats; 0.4 mL IV bolus): 35 ± 18 s; time to unconsciousness (Sprague Dawley rats; 0.4 mL IV bolus): 20 ± 4 s; gross pathology / necropsy findings (Sprague Dawley rats; recovered animals (sublethal doses), 48 h after drug administration): no gross pathology findings
